Values of other authors as cited in patent publication US12110270B2, “Systems and methods for generation of hyperpolarized materials” (NVISION IMAGING TECHNOLOGIES GMBH, priority 2021, dated 2024).
Read-outs that look alike come from different tables or passages of the source.

maximal mole fraction in n-heptane (14.8° C.): 0.935
maximal mole fraction in n-heptane (−29.2° C.): 0.02
SMILES: CC(=O)O [acetic acid]
